Experimental data published in PMC9864848, “A Study of the Interaction between Xanthine Oxidase and Its Inhibitors from Chrysanthemum morifolium Using Computational Simulation and Multispectroscopic Methods” (Metabolites, 2023).
Like-named read-outs stand apart in the source and are kept apart here.

Assays:
xanthine oxidase = target: T1, xanthine oxidase (Bos taurus, UniProt P80457); test: Xanthine oxidase (XO) inhibitory assay; type: biochemical, Bovine; conditions: read-out: XO inhibition (%)
T1 construct: purchased Roche Diagnostics (Mannheim, Germany)
Protocol: A total of 100 μL of test samples containing dimethyl sulfoxide (100 μg/mL) and 0.1 U/mL xanthine oxidase (100 µL) were added to a 0.05 M potassium phosphate buffer (1.3 mL, pH 7.5). The mixture was then incubated at 25 °C for 10 min. A 1 mL of 0.15 mM xanthine was added into the solution, then incubated at 30 °C for 10 min. […] The percentage of XO inhibition was calculated as follows: Inhibition (%)=Absorbancenegative control−Absorbancesample/Absorbancenegative control×100% Absorbancenegative control = Absorbance of the negative control (without inhibitors) Absorbancesample = Absorbance of the solution containing test samples

XO [1] = target: T2, XO (Bos taurus, UniProt P80457); test: Fluorescence quenching assay of XO; type: binding, Bovine; conditions: pH 7.5; for Kd: Modified Stern-Volmer association constant Ka
T2 construct: purchased Roche Diagnostics (Mannheim, Germany)
Protocol: The assay was carried out by referring to a previous method with slight modifications. […] Titrations were performed manually and mixed carefully. […] The excitation wavelength was set at 280 nm, and the excitation and emission slits were 5 nm. The fluorescence background was corrected by subtracting the relevant blanks corresponding to the potassium phosphate buffer (pH 7.5).
To distinguish the mechanism of quenching various inhibitors on XO, the fluorescence quenching output was analyzed by applying the Stern-Volmer equation [34]: F0/F=1+KSV[Q]=1+Kqτ0[Q] where F0 and F represent the steady-state fluorescence intensities of XO in the absence and presence of the respective inhibitor. KSV is the Stern-Volmer quenching constant, determined from the slope of the linear regression of F0/F against the [Q] plot. [Q] represents the concentration of the inhibitor.
Then, Ka values for the inhibitor-XO complex at three different temperatures were calculated from the linear regression of F0/(F0 − F) against 1/[Q].

XO [2] = conditions: cited from earlier work
XO [3] = target: T2, XO; test: Circular dichroism (CD) analysis of XO secondary structure; set-up: species or system Bovine
Protocol: The analysis was carried out according to a modified method. […] The measurement was performed in potassium phosphate buffer (pH 7.5) at room temperature. […] The JASCO SSE (Secondary Structure Estimation) software was used to analyze the CD spectroscopic data with Reed’s reference to obtain the data of various secondary structures of XO with respective ligands.

[4] = previous study, read-out: IC50 (XO inhibitory effect)
[5] = at 100 μg/mL, mean ± SEM, n = 3
[6] = molar ratio XO:inhibitor 1:5, pH 7.5 (free XO 15.4)
[7] = molar ratio XO:inhibitor 1:5, pH 7.5 (free XO 19.7)
[8] = molar ratio XO:inhibitor 1:5, pH 7.5 (free XO 65.0)
[9] = molar ratio XO:inhibitor 1:10, pH 7.5 (free XO 15.4)
[10] = molar ratio XO:inhibitor 1:10, pH 7.5 (free XO 19.7)
[11] = molar ratio XO:inhibitor 1:10, pH 7.5 (free XO 65.0)

T2 sequence (P80457 whole entry): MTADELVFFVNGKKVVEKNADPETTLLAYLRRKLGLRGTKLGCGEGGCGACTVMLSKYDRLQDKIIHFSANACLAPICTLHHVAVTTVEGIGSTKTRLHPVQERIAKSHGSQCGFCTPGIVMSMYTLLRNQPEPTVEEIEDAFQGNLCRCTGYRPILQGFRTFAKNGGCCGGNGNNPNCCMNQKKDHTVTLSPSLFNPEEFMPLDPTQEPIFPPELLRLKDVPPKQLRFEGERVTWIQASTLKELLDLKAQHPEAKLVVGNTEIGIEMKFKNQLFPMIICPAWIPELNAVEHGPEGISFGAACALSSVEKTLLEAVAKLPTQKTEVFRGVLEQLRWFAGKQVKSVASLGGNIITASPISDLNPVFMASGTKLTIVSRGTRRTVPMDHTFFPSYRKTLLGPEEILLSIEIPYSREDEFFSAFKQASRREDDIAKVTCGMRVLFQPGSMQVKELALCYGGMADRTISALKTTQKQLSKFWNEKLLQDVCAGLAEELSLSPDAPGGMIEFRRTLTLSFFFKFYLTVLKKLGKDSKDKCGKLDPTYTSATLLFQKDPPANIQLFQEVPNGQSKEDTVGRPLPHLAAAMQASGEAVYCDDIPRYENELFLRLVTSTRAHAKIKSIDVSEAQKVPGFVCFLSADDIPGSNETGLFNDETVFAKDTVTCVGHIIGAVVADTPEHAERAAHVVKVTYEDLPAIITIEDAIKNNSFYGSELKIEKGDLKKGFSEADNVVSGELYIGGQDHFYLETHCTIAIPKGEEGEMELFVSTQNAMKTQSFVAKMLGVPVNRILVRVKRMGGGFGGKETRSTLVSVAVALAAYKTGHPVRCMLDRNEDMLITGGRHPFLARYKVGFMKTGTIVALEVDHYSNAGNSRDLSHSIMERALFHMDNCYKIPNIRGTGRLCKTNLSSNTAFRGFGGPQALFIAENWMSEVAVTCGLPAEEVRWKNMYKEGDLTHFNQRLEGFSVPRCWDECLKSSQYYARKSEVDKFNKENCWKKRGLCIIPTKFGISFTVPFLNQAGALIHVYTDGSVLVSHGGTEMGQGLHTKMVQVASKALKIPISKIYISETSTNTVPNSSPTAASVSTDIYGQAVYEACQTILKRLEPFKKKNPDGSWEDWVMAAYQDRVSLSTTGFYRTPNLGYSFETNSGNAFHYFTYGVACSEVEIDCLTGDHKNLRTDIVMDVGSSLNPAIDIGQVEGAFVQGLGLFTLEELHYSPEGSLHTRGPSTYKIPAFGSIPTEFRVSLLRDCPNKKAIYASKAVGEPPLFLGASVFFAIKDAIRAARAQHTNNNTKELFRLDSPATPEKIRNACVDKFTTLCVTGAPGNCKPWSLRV
T1 sequence (P80457 whole entry): as above

Structure (SMILES) | inhibition at 100 µg/mL (xanthine oxidase) [%] | Quenching constant KSV (XO [1]; 298 K) [L/mol] | Quenching rate constant Kq (XO [1]; 298 K) [M⁻¹ s⁻¹] | Quenching constant KSV (XO [1]; 304 K) [L/mol] | Quenching rate constant Kq (XO [1]; 304 K) [M⁻¹ s⁻¹] | Quenching constant KSV (XO [1]; 310 K) [L/mol] | Quenching rate constant Kq (XO [1]; 310 K) [M⁻¹ s⁻¹] | Kd (XO [1]; 298 K) [µM] | Kd (XO [1]; 304 K) [µM] | Kd (XO [1]; 310 K) [µM] | IC50 (XO [2]; [4]) [µM] | inhibition at 100 µg/mL (xanthine oxidase; [5]) [%] | Random Coil (%) of XO (XO [3]; [6]) [%] | α-Helix (%) of XO (XO [3]; [7]) [%] | β-Sheet (%) of XO (XO [3]; [8]) [%] | Random Coil (%) of XO (XO [3]; [9]) [%] | α-Helix (%) of XO (XO [3]; [10]) [%] | β-Sheet (%) of XO (XO [3]; [11]) [%] | XO inhibitory potency (in words) (XO [2]; ref 28 (Mohos et al.)) | IC50 (XO [2]; ref 27 (Chang et al.), read-out: IC50 (XO inhibition)) [µM]
Oc1ncnc2[nH]ncc12 [Allopurinol, allopurinol, reference compound] | 96.5 ± 2.4 | – | – | – | – | – | – | – | – | – | – | – | – | – | – | – | – | – | – | –
O=c1cc(-c2ccc(O)cc2)oc2cc(O)cc(O)c12 [Apigenin, apigenin] | – | 130200 | 4.65e+13 | 332400 | 1.187e+14 | 182100 | 6.504e+13 | 5.33 | 3.5 | 4.3 | 3.2 | 56.6 ± 1.77 | 22.2 | 10.8 | 67.0 | 0.0 | 36.7 | 63.3 | – | –
COc1cc(CC(=O)O)ccc1O [Homovanillic acid, homovanillic acid] | 30 ± 2.18 | 49100 | 1.754e+13 | 93100 | 3.325e+13 | 698800 | 2.4957e+14 | 5.61 | 2.67 | 4.15 | – | – | 0.0 | 36.3 | 63.7 | 27.0 | 5.1 | 67.9 | less potent inhibitor of XO | –
O=c1c(O)c(-c2ccc(O)cc2)oc2cc(O)cc(O)c12 [Kaempferol, kaempferol] | – | 97700 | 3.489e+13 | 396400 | 1.416e+14 | 277900 | 9.925e+13 | – | – | – | 2.18 ± 0.02 | 81.9 ± 3.31 | 11.2 | 17.1 | 71.7 | 34.2 | 0.0 | 65.8 | – | –
O=C(O)/C=C/c1ccccc1 [Trans-cinnamic acid, trans-cinnamic acid] | – | 180000 | 6.429e+13 | 282300 | 1.008e+14 | 278400 | 9.943e+13 | 8.02 | 3.62 | 3.49 | – | 57.6 ± 6 | 0.0 | 36.4 | 63.6 | 22.7 | 10.4 | 66.9 | – | > 200
